# Experimental data published in patent publication US20190247353A1, “ACNE STRAIN-SELECTIVE ANTIBACTERIAL AGENT” (MOMOTANI JUNTENKAN CO., LTD., priority 2016, published 2019).
# Read-outs that look alike come from different tables or passages of the source.
# Key:
# Assay type in all cases: cell-based, Propionibacterium acnes
# HL053PA1 strain (RT4) = assay: MIC by broth microdilution method, HL053PA1 strain; settings: for MIC: Cutibacterium acnes
# Description: (§1) An MIC is measured herein according to the broth microdilution method which is the standard method of Japanese Society of Chemotherapy.
# (§2) The antibacterial activity of a test substance was determined based on the minimum inhibitory concentration (MIC). An MIC was measured according to the broth microdilution method which is the standard method of Japanese Society of Chemotherapy.
# (§3) One-loopful of each acne bacterium strain listed in Table 1 was scraped off and inoculated into 5 mL of a GAM broth slant agar medium (pH 7.0, Nissui Pharmaceutical Co., Ltd.).
# (§4) The inoculated acne bacterium strain was precultured at 37° C. in a nitrogen atmosphere (anaerobic condition) for 48 hours. The precultured microbial cells were diluted in a modified GAM broth liquid medium (pH 6.0) to a concentration of 5.0×10^4 cfu/mL (viable cell count per OD660=1 is 2.0×10^9 cfu/mL), to prepare strain suspensions.
# (§5) Each fatty acid (Tokyo Chemical Industry Co., Ltd.) listed in Table 2 was dissolved in dimethylsulfoxide (DMSO) as a solvent such that the concentration became 10,000 μg/mL, and used as a test substance.
# (§6) Each of strain suspensions (5.0×10^4 cfu/mL) was aliquoted in a 96-well round bottom microplate, each of the test substance (fatty acid concentration 10,000 μg/mL) was added at a 1/10 volume to the aliquot and mixed to prepare measurement samples (fatty acid concentration: 1,000 μg/mL). Measurement samples in 2-fold dilution series were prepared using the strain suspension (fatty acid concentration from 0.48 to 1,000 μg/mL).
# (§7) […] The presence or absence of a precipitation of test microbial cells after the incubation was examined and the minimum concentration at which the precipitation of microbial cells […] was regarded as the MIC (μg/mL) of the test substance against the acne bacterium strain.
# HL043PA1 strain (RT5) = assay: MIC by broth microdilution method, HL043PA1 strain; settings: for MIC: Cutibacterium acnes
# Description: as §1, §2, §3
# The inoculated acne bacterium strain was precultured at 37° C. in a nitrogen atmosphere (anaerobic condition) for 48 hours. […]
# as §5, §6
# The measurement samples were incubated under an anaerobic condition at 37° C. for 2 days. The presence or absence of a precipitation of test microbial cells after the incubation was examined and the minimum concentration at which the precipitation of microbial cells […] was regarded as the MIC (μg/mL) of the test substance against the acne bacterium strain.
# HL110PA3 strain (RT6) [1] = assay: MIC by broth microdilution method, HL110PA3 strain; settings: Cutibacterium acnes, read-out: MIC against acne bacterium strain HL110PA3 strain (RT6)
# HL110PA3 strain (RT6) [2] = assay: MIC by broth microdilution method, HL110PA3 strain; settings: for MIC: Cutibacterium acnes, 48 h; for MIC against acne bacterium strain HL110PA3 strain (RT6): monoacylglycerols, Example 3, method as Example 1
# Description: as §1, §2, §3, §4, §5, §6, §7
# [3] = tested on: HL053PA1 strain (RT4) and HL043PA1 strain (RT5) versus HL110PA3 strain (RT6); assay: Strain-selective antibacterial activity (average of MICRT6/MICRT4 and MICRT6/MICRT5)
# Excerpt: Herein, “acne strain-selective antibacterial activity” or “strain-selective antibacterial activity” means an index indicating better inhibition of growth of a dominant strain in acne patients compared to that of a dominant strain in healthy subjects. It is expressed by the average value of the values (MICRT6/MICRT4, and MICRT6/MICRTS) obtained by dividing the minimum inhibitory concentration (MIC) of an object substance with respect to the dominant strain in healthy subjects (RT6 strain) (MICRT6) respectively by the MIC of the object substance with respect to the dominant strain in acne patients (RT4 strain) (MICRT4), and by the MIC of the object substance with respect to the dominant strain in acne patients (RT5 strain) (MICRT5).
# The strain-selective antibacterial activity of each test substance (Table 2, right-most column) was evaluated based on the following rating criteria (Table 3). When the strain-selective antibacterial activity is indicated by a numerical range, the rating was based on the minimum value thereof.
# [4] = monoacylglycerols, Example 3, method as Example 1
# [5] = 48 h, pH 6.0 modified GAM broth, anaerobic, 37° C., 2 days (Example 1), read-out: MIC against acne bacterium strain HL053PA1 strain (RT4)
# [6] = 48 h, pH 6.0 modified GAM broth, anaerobic, 37° C., 2 days (Example 1), read-out: MIC against acne bacterium strain HL043PA1 strain (RT5)
# [7] = pH 6.0 modified GAM broth, anaerobic, 37° C., 2 days (Example 1), read-out: MIC against acne bacterium strain HL110PA3 strain (RT6)
Structure (SMILES),MIC (HL053PA1 strain (RT4); [5]) [mg/L],MIC (HL043PA1 strain (RT5); [6]) [mg/L],MIC (HL110PA3 strain (RT6) [2]; [7]) [mg/L],Strain-selective antibacterial activity ([3]; pH 6.0 (Example 1)),also measured
CCCCCCCCCCCCCCCCCC(=O)OCC(O)CO (centres unmarked) [Monostearin],,,,,"MIC (HL053PA1 strain (RT4); monoacylglycerols, Example 3, method as Example 1, read-out: MIC against acne bacterium strain HL053PA1 strain (RT4)): > 1000 mg/L; MIC (HL043PA1 strain (RT5); monoacylglycerols, Example 3, method as Example 1, read-out: MIC against acne bacterium strain HL043PA1 strain (RT5)): > 1000 mg/L; MIC (HL110PA3 strain (RT6) [1]; [4]): > 1000 mg/L"
"CCCCCCC(=O)O [Heptanoic acid (C7:0), Heptanoic acid, reference compound]",125,125,125,1.0,
"CCCCCCCCCC(=O)O [Capric acid (C10:0), Capric acid, reference compound]",500,500,250,0.50,
CCCCCCCCCCCCCC(=O)OCC(O)CO (centres unmarked) [Monomyristin],,,,,"MIC against acne bacterium strain HL053PA1 strain (RT4) (HL053PA1 strain (RT4); [4]): 500 mg/L; MIC against acne bacterium strain HL043PA1 strain (RT5) (HL043PA1 strain (RT5); [4]): 500 mg/L; MIC against acne bacterium strain HL110PA3 strain (RT6) (HL110PA3 strain (RT6) [2]): >1000 mg/L; Strain-selective antibacterial activity ([3]; monoacylglycerols, Example 3): >2.0"
CCCCCCCCCCCCCCC(=O)OCC(O)CO (centres unmarked) [Monopentadecanoin],,,,,"MIC against acne bacterium strain HL053PA1 strain (RT4) (HL053PA1 strain (RT4); [4]): 15.6 mg/L; MIC against acne bacterium strain HL043PA1 strain (RT5) (HL043PA1 strain (RT5); [4]): 7.81 mg/L; MIC against acne bacterium strain HL110PA3 strain (RT6) (HL110PA3 strain (RT6) [2]): 62.5 mg/L; Strain-selective antibacterial activity ([3]; monoacylglycerols, Example 3): 6.0"
"CCCCCC/C=C\CCCCCCCC(=O)O [Palmitoleic acid (C16:1), Palmitoleic acid, reference compound]",31.3,7.81,15.6,1.2,
"CCCCCCCC/C=C\CCCCCCCC(=O)O [Oleic acid (C18:1), Oleic acid]",500,62.5,> 1000,>9.0,Strain-selective antibacterial activity at each pH ([3]; pH 6 (summary Table 10)): >9
"CCCCCCCCCCCC(=O)O [Lauric acid (C12:0), Lauric acid, reference compound]",15.6,31.3,15.6,,
"CC[C@H]1OC(=O)[C@H](C)[C@@H](O[C@H]2C[C@@](C)(OC)[C@@H](O)[C@H](C)O2)[C@H](C)[C@@H](O[C@@H]2O[C@H](C)C[C@H](N(C)C)[C@H]2O)[C@](C)(O)C[C@@H](C)/C(=N\OCOCCOC)[C@H](C)[C@@H](O)[C@]1(C)O [Roxithromycin, reference compound]",,,,,"MIC (HL053PA1 strain (RT4); control antibiotics, Comparative Example 2, method as Example 1, read-out: MIC against acne bacterium strain HL053PA1 strain (RT4)): 500 mg/L; MIC (HL043PA1 strain (RT5); control antibiotics, Comparative Example 2, method as Example 1, read-out: MIC against acne bacterium strain HL043PA1 strain (RT5)): 1000 mg/L; MIC (HL110PA3 strain (RT6) [1]; control antibiotics, Comparative Example 2, method as Example 1, LOD = MIC <0.48 ng/mL): 0.0038 mg/L"
"CCCCCC(=O)O [Caproic acid (C6:0), Caproic acid, reference compound]",,,,1.0,"MIC (HL053PA1 strain (RT4); 48 h, pH 6, read-out: MIC against acne bacterium strain HL053PA1 strain (RT4)): 62.5 mg/L; MIC (HL043PA1 strain (RT5); 48 h, pH 6, read-out: MIC against acne bacterium strain HL043PA1 strain (RT5)): 62.5 mg/L; MIC (HL110PA3 strain (RT6) [2]; pH 6, read-out: MIC against acne bacterium strain HL110PA3 strain (RT6)): 62.5 mg/L"
